Test systems include MDA-MB-435; SN12C; SNB-19; A498; NCI-H226; DU-145; Malme-3M; A549; SK-MEL-28; UACC-257; OVCAR-4; CAKI-1; 786-0; NCI/ADR-RES; SF-268; HCT-15; HT-29; NCI-H522.
Common to all, as to assay: NCI-60 cell line screen, 48 h

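Interpolation was linear, between the two tested concentrations surrounding the appropriate level; five concentrations were tested over 48 hours in 96-well plates. The concentration for 50% growth inhibition is given as GI50.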 The source made the active and inactive calls. Cut-off read from the data, not from the text of the source: active = GI50 up to about 1.1 µM and inactive = higher.

This is an account of results in ChEMBL document CHEMBL1201862, “PubChem BioAssay data set” (2004).

With `O=C(NNS(=O)(=O)c1ccccc1)c1cccnc1`, the GI50 in the assay on MDA-MB-435, in the assay on SN12C, in the assay with SNB-19, in the assay with A498, in the assay with NCI-H226 and with DU-145 was > 100 µM (inactive) throughout. Also, the GI50 in the assay with Malme-3M, in the assay with A549, with SK-MEL-28, in the assay on UACC-257, in the assay with OVCAR-4 and in the assay with CAKI-1 was > 100 µM (inactive) in each case. For the same compound, the GI50 with 786-0 was > 100 µM (inactive); in the assay with NCI/ADR-RES, > 100 µM (inactive); in the assay on SF-268, > 100 µM (inactive); in the assay with HCT-15, above 100 µM; in the assay on HT-29, > 100 µM (inactive); in the assay on NCI-H522, > 100 µM (inactive).
With `O=C1NC(=S)NC(=O)C1C(c1ccccc1[N+](=O)[O-])C1C(=O)NC(=S)NC1=O.c1ccncc1`, the GI50 in the assay on MDA-MB-435, with SN12C, with SNB-19, with A498, in the assay on NCI-H226 and with DU-145 was > 100 µM (inactive) throughout. Further, the GI50 in the assay on Malme-3M, with A549, in the assay with SK-MEL-28, in the assay with UACC-257, in the assay with OVCAR-4 and in the assay on CAKI-1 was > 100 µM (inactive) each time. The GI50 with 786-0 was > 100 µM (inactive); in the assay on NCI/ADR-RES it was > 100 µM (inactive); with SF-268, > 100 µM (inactive); in the assay on HCT-15, above 100 µM; in the assay with HT-29, > 100 µM (inactive); in the assay with NCI-H522, > 100 µM (inactive).
For `O=C1N=NC(=O)N1c1cc(C(F)(F)F)cc(C(F)(F)F)c1`, the GI50 is 4.38 µM (inactive) in the assay on MDA-MB-435; 3.75 µM (inactive) in the assay with SN12C; 4.03 µM (inactive) in the assay with SNB-19; 5.4 µM (inactive) with A498; 2.55 µM (inactive) in the assay on NCI-H226; 5.28 µM (inactive) in the assay on DU-145. Also, the GI50 in the assay on Malme-3M was 3.83 µM (inactive); in the assay on A549, 2.93 µM (inactive); with SK-MEL-28, 10.6 µM (inactive); in the assay on UACC-257 it was 3.16 µM (inactive); with OVCAR-4 it was 4.21 µM (inactive); with CAKI-1 it was 2.94 µM (inactive). The GI50 in the assay with 786-0 is 4.68 µM (inactive); with NCI/ADR-RES, 2.97 µM (inactive); in the assay with SF-268 it was 3.7 µM (inactive); with HCT-15 it was 3.2 µM; in the assay on HT-29 it was 2.73 µM (inactive); in the assay with NCI-H522, 2.07 µM (inactive).
On to `COc1ccc(C(=O)/C=C/c2cccnc2)cc1OC`, for which the GI50 with MDA-MB-435 is 14.8 µM (inactive); in the assay with SN12C, 6.25 µM (inactive); in the assay on SNB-19 it was 14.5 µM (inactive); in the assay with A498 it was 14.6 µM (inactive); with NCI-H226, 12.1 µM (inactive); in the assay on DU-145, 14.6 µM (inactive). Also, the GI50 in the assay on Malme-3M is 15.2 µM (inactive); in the assay on A549 it was 14.3 µM (inactive); with SK-MEL-28 it was 16.2 µM (inactive); in the assay with UACC-257, 15.6 µM (inactive); in the assay with OVCAR-4, 12 µM (inactive); in the assay on CAKI-1, 4.44 µM (inactive). Further, the GI50 in the assay on 786-0 was 4.51 µM (inactive); with NCI/ADR-RES, 14.5 µM (inactive); in the assay on SF-268, 7.55 µM (inactive); in the assay on HCT-15 it was 11.4 µM; in the assay with HT-29, 4.1 µM (inactive); with NCI-H522 it was 1.83 µM (inactive).
As to `Cc1cc(-c2nc3ccccc3s2)ccc1NC(=O)[C@@H](N)CCCCN`, the GI50 in the assay with MDA-MB-435 is 5.24 µM (inactive); with SN12C, 16.8 µM (inactive); with SNB-19, 12 µM (inactive); in the assay with A498, 3.83 µM (inactive); in the assay with NCI-H226 it was 2.24 µM (inactive); in the assay on DU-145, 12.5 µM (inactive). Further, the GI50 is 18.2 µM (inactive) in the assay with Malme-3M; 6.14 µM (inactive) with A549; 15.3 µM (inactive) with SK-MEL-28; 18.4 µM (inactive) in the assay with UACC-257; 5.87 µM (inactive) in the assay with OVCAR-4; 7.5 µM (inactive) with CAKI-1. For the same compound, the GI50 in the assay with 786-0 is 5.96 µM (inactive); in the assay on NCI/ADR-RES it was 15.8 µM (inactive); with SF-268, 6.07 µM (inactive); in the assay with HCT-15, 9.27 µM; in the assay on HT-29, 7.16 µM (inactive); in the assay with NCI-H522, 6.75 µM (inactive).
With `COc1ccc2c(c1)CCCN1Cc3ccccc3CC21` (stereo not drawn), the GI50 in the assay with MDA-MB-435 was 54.1 µM (inactive); in the assay on SN12C, 64.1 µM (inactive); with SNB-19, 67.1 µM (inactive); in the assay with A498, 27 µM (inactive); with NCI-H226, 31.5 µM (inactive); in the assay on DU-145 it was > 100 µM (inactive). Further, the GI50 with Malme-3M is 41.9 µM (inactive); in the assay with A549 it was > 100 µM (inactive); in the assay with SK-MEL-28, 62.1 µM (inactive); in the assay with UACC-257 it was 91.2 µM (inactive); in the assay with OVCAR-4 it was > 100 µM (inactive); with CAKI-1 it was > 100 µM (inactive). Besides, the GI50 was 99.1 µM (inactive) in the assay with 786-0; > 100 µM (inactive) with NCI/ADR-RES; > 100 µM (inactive) in the assay on SF-268; above 100 µM with HCT-15; 32.7 µM (inactive) in the assay with HT-29; > 100 µM (inactive) in the assay on NCI-H522.
Take `Cc1ccc2nc3ccccc3c(C3C4C(=O)N(c5ccc(F)cc5)C(=O)C4ON3C(C(N)=O)c3ccccc3)c2c1` (stereo not drawn): the GI50 with MDA-MB-435 is 26.2 µM (inactive); in the assay with SN12C it was 33 µM (inactive); with SNB-19 it was 57.8 µM (inactive); with A498 it was 41.1 µM (inactive); in the assay with NCI-H226, 46.3 µM (inactive); with DU-145, 59.3 µM (inactive). The GI50 in the assay with Malme-3M was 27.4 µM (inactive); with A549, 29.4 µM (inactive); in the assay on SK-MEL-28, 59 µM (inactive); with UACC-257, 42.7 µM (inactive); with OVCAR-4 it was 41.1 µM (inactive); in the assay with CAKI-1, 24.4 µM (inactive). For the same compound, the GI50 was 37.9 µM (inactive) in the assay with 786-0; 29.2 µM (inactive) with NCI/ADR-RES; 47.1 µM (inactive) with SF-268; 27.2 µM with HCT-15; 26.1 µM (inactive) with HT-29; 17.5 µM (inactive) in the assay with NCI-H522.
For `O=c1[nH]nc(-c2ccccc2)n1O`, the GI50 in the assay on MDA-MB-435, in the assay with SN12C, in the assay with SNB-19, in the assay on A498, in the assay with NCI-H226 and in the assay with DU-145 was > 100 µM (inactive) in each case. In addition, the GI50 in the assay on Malme-3M, in the assay on A549, in the assay with SK-MEL-28, in the assay with UACC-257, with OVCAR-4 and with CAKI-1 was > 100 µM (inactive) in each case. In addition, the GI50 is > 100 µM (inactive) with 786-0; > 100 µM (inactive) in the assay with NCI/ADR-RES; 91.4 µM (inactive) in the assay with SF-268; above 100 µM in the assay with HCT-15; > 100 µM (inactive) with HT-29; > 100 µM (inactive) with NCI-H522.
`NC(Cc1ccnnc1)C(=O)O` (stereo not drawn): the GI50 with MDA-MB-435, with SN12C, in the assay on SNB-19, with A498, in the assay on NCI-H226 and in the assay with DU-145 was > 100 µM (inactive) throughout. Also, the GI50 in the assay with Malme-3M, in the assay on A549, with SK-MEL-28, with UACC-257, in the assay on OVCAR-4 and in the assay on CAKI-1 was > 100 µM (inactive) in each case. The GI50 is > 100 µM (inactive) in the assay on 786-0; > 100 µM (inactive) with NCI/ADR-RES; > 100 µM (inactive) in the assay with SF-268; above 100 µM in the assay on HCT-15; > 100 µM (inactive) in the assay with HT-29; > 100 µM (inactive) in the assay with NCI-H522.
For `Cc1ccc([N+](=O)[O-])c2c(NCCC[N+](C)(C)[O-])ccnc12`, the GI50 is > 100 µM (inactive) in the assay with MDA-MB-435; > 100 µM (inactive) in the assay on SN12C; 89.5 µM (inactive) in the assay with SNB-19; 32.2 µM (inactive) in the assay with A498; 98.9 µM (inactive) in the assay on NCI-H226; 57.8 µM (inactive) in the assay with DU-145. Further, the GI50 was 44 µM (inactive) in the assay on Malme-3M; 33.2 µM (inactive) in the assay on A549; > 100 µM (inactive) in the assay on SK-MEL-28; 29.4 µM (inactive) in the assay on UACC-257; 20.3 µM (inactive) in the assay on OVCAR-4; 53.6 µM (inactive) in the assay with CAKI-1. Besides, the GI50 in the assay on 786-0 was > 100 µM (inactive); in the assay with NCI/ADR-RES, > 100 µM (inactive); in the assay with SF-268, > 100 µM (inactive); with HCT-15, above 10 µM; in the assay with HT-29 it was 34.8 µM (inactive); in the assay on NCI-H522, 15 µM (inactive).
On to `CCCCCCCCCCCC[C@@H](O)[C@H]1CC[C@H]([C@H](O)CC[C@H](O)[C@@H]2CC[C@@H](CCCCCCCC3=C[C@H](C)OC3=O)O2)O1`, for which the GI50 with MDA-MB-435 was > 50 µM (inactive); with SN12C, 3.99 µM (inactive); in the assay with SNB-19, > 50 µM (inactive); with A498 it was > 50 µM (inactive); in the assay on NCI-H226, > 50 µM (inactive); in the assay with DU-145, 7.55 µM (inactive). The GI50 was > 50 µM (inactive) with Malme-3M; > 50 µM (inactive) with A549; > 50 µM (inactive) with SK-MEL-28; > 14.9 µM (inactive) with UACC-257; > 50 µM (inactive) in the assay on OVCAR-4; > 50 µM (inactive) in the assay with CAKI-1. In addition, the GI50 in the assay with 786-0 is > 50 µM (inactive); with NCI/ADR-RES it was > 50 µM (inactive); in the assay with SF-268 it was > 50 µM (inactive); in the assay with HCT-15, above 50 µM; in the assay with HT-29, > 50 µM (inactive); in the assay on NCI-H522, 46.8 µM (inactive).
